Reference: publication PMC11504268 (Antibiotics, 2024)
Read-outs that look alike come from different tables or passages of the source. Values belong to the compound of their own block, whether it stands above or below them.

Tests used:
[1] = Procedure: The estimation of parameters, including fixed and random effects, was conducted using first-order conditional estimation with the interaction method. This enables modelling of the interaction between the IIV in PK parameters and the residual variability (RV) in measured concentrations. […] Each model adhered to first-order kinetics, except the zero-order infusion processes. Each PK parameter in the model was described by the equation θi = θ × exp (ηi), where θ denotes the typical value of the PK parameter, θi is the individual PK parameter value for each participant, and ηi is a random variable encapsulating IIV. We hypothesised that IIV is normally distributed, with a mean of zero and variance ω^2. RV was modelled as normally distributed with a mean of zero and a variance σ^2. Additionally, we evaluated additive, proportional, and combined additive-proportional error models. The methods used to select and validate models encompassed several criteria: variations in NONMEM objective function values (OFVs), the accuracy of parameter estimates as reflected by relative standard errors, goodness-of-fit plots, VPC, and bootstrap evaluations. […] Model validation processes included the creation of conditional weighted residual plots versus time and against population predictions (PRED), in addition to comparisons between observed data and both PRED and individual predictions. […] The variability in the final model predictions was analysed using the median and 95% confidence intervals from 2000 bootstrap replicates. We identified significant covariates influencing pharmacokinetic (PK) parameters through a process of stepwise forward selection and backward elimination, with inclusion thresholds of p < 0.01 (ΔOFV < −6.635) and exclusion thresholds of p < 0.001 (ΔOFV > 10.83) for single degree-of-freedom tests. Covariates were assessed for both their statistical and clinical relevance, taking into account demographic factors (such as gender, age, weight, height, body mass index, and body surface area) and biochemical markers (including serum protein, albumin, creatinine, and cystatin C levels). […] We utilised Perl-speaks-NONMEM (PSN, version 5.3.1, [https://uupharmacometrics.github.io/PsN], accessed on 13 April 2023) for covariate identification, VPC execution, and nonparametric bootstrapping to evaluate model robustness. Data analysis and graphical outputs were conducted using the R programming environment (version 4.4.0, [www.rproject.org], Vienna, Austria, accessed on 6 June 2024).
Remark: listed apart in the source
[2] = cited from earlier work; for average AUC: critically ill patients, daily dose 30 mg/kg
[3] = healthy adults n = 12, 1 g i.v. over 2 h, plasma, NCA, mean (CV%)
[4] = healthy adults n = 12, 1 g i.v. over 2 h, plasma, NCA, median (IQR)
[5] = final model, 2000 bootstrap replicates
[6] = final model, Q = θ5 × (WT/69.45)^θ6
[7] = final model, V2 = θ7 × (BSA/1.80)^θ8

V1, Estimates ([1]; in vivo): 15.1 L
V2, Estimates ([1]; in vivo): 26.2 L
Structure (SMILES): C[C@@H](O)[C@H]1C(=O)N2C(C(=O)O)=C(S[C@@H]3CN[C@H](C(=O)N(C)C)C3)[C@H](C)[C@H]12 [meropenem]

Structure (SMILES): CN[C@H](CC(C)C)C(=O)N[C@H]1C(=O)N[C@@H](CC(N)=O)C(=O)N[C@H]2C(=O)N[C@H]3C(=O)N[C@H](C(=O)N[C@H](C(=O)O)c4cc(O)cc(O)c4-c4cc3ccc4O)[C@H](O)c3ccc(c(Cl)c3)Oc3cc2cc(c3O[C@@H]2O[C@H](CO)[C@@H](O)[C@H](O)[C@H]2O[C@H]2C[C@](C)(N)[C@H](O)[C@H](C)O2)Oc2ccc(cc2Cl)[C@H]1O [vancomycin]
Cmax, Mean (CV%) (healthy Korean adults n = 12, single 1 g i.v. infusion over 2 h, plasma, LC-MS/MS, NCA, mean (CV%)): 23.4 (34.4) mg/L
Cmax, Median (IQR) (healthy Korean adults n = 12, single 1 g i.v. infusion over 2 h, plasma, LC-MS/MS, NCA, median (IQR)): 20.8 (17.0–27.1) mg/L
AUCinf, Mean (CV%) [3]: 106 (30.5) mg·h/L
AUClast, Mean (CV%) [3]: 78.7 (28.2) mg·h/L
AUMCinf, Mean (CV%) [3]: 667 (40.0) mg·h^2/L
AUMClast, Mean (CV%) [3]: 289 (26.7) mg·h^2/L
MRTinf, Mean (CV%) [3]: 5.12 (18.9) h
AUCinf, Median (IQR) [4]: 97.1 (76.1–140) mg·h/L
AUClast, Median (IQR) [4]: 73.6 (58.5–90.4) mg·h/L
AUMCinf, Median (IQR) [4]: 587 (464–807) mg·h^2/L
AUMClast, Median (IQR) [4]: 279 (217–341) mg·h^2/L
MRTinf, Median (IQR) [4]: 4.98 (4.46–5.60) h
VssNCA, Mean (CV%) (steady-state Vd by NCA, healthy adults n = 12, 1 g i.v. over 2 h, mean (CV%)): 0.730 (15.7) L/kg
VssNCA, Median (IQR) (steady-state Vd by NCA, healthy adults n = 12, 1 g i.v. over 2 h, median (IQR)): 0.714 (0.650–0.802) L/kg
t1/2λz, Mean (CV%) (terminal elimination half-life, NCA, healthy adults n = 12, 1 g i.v. over 2 h, mean (CV%)): 3.87 (21.3) h
t1/2λz, Median (IQR) (terminal elimination half-life, NCA, healthy adults n = 12, 1 g i.v. over 2 h, median (IQR)): 3.58 (3.34–4.25) h
CLNCA, Mean (CV%) (total body clearance by NCA, healthy adults n = 12, 1 g i.v. over 2 h, mean (CV%)): 0.146 (19.8) L/h/kg
CLNCA, Median (IQR) (total body clearance by NCA, healthy adults n = 12, 1 g i.v. over 2 h, median (IQR)): 0.135 (0.128–0.160) L/h/kg
VzZNCA, Mean (CV%) (volume of distribution by NCA, healthy adults n = 12, 1 g i.v. over 2 h, mean (CV%)): 0.793 (15.4) L/kg
VzZNCA, Median (IQR) (volume of distribution by NCA, healthy adults n = 12, 1 g i.v. over 2 h, median (IQR)): 0.806 (0.701–0.873) L/kg
clearance rate per kg ([1]; final model typical CL 8.83 L/h expressed per kg, healthy adults with normal renal function): 2.12 mL/min/kg
θ1, typical total clearance CL, Bootstrap Median (95% CI) [1, 5]: 8.78 (8.14–9.6) L/h
θ4, central volume of distribution V1, Bootstrap Median (95% CI) [1, 5]: 12.8 (3.94–19.6) L
θ5, intercompartmental clearance Q, Bootstrap Median (95% CI) [1, 5]: 20.4 (16.8–28.2) L/h
θ6, exponent of weight on Q, Bootstrap Median (95% CI) [1, 5]: 2.31 (1.36–3.35)
θ7, peripheral volume of distribution V2, Bootstrap Median (95% CI) [1, 5]: 27.8 (25.0–31.0) L
θ8, exponent of BSA on V2, Bootstrap Median (95% CI) [1, 5]: 3.13 (1.79–3.73)
θ1, typical total clearance CL, Estimates ([1]; final model, CL = θ1 × (WT/69.45)^θ2 × (AGE/38.5)^θ3, 12 healthy adults): 8.83 L/h
θ5, intercompartmental clearance Q, Estimates [1, 6]: 20.2 L/h
θ6, exponent of weight on Q, Estimates [1, 6]: 2.38
θ4, central volume of distribution V1, Estimates ([1]; final model, V1 = θ4): 12.9 L
θ7, peripheral volume of distribution V2, Estimates [1, 7]: 27.4 L
θ8, exponent of BSA on V2, Estimates [1, 7]: 3.09
VC, Mean (CV%) ([1]; individual parameters from population PK, central volume of distribution, n = 12, mean (CV%)): 0.211 (48.0) L/kg
VC, Median (IQR) ([1]; individual parameters from population PK, central volume of distribution, n = 12, median (IQR)): 0.163 (0.144–0.251) L/kg
t1/2α, Mean (CV%) ([1]; individual parameters from population PK, distribution phase half-life, n = 12, mean (CV%)): 0.270 (42.7) h
AUCtau, Mean (CV%) ([1]; individual parameters from population PK, dose/CL, 1 g, n = 12, mean (CV%)): 113 (28.9) mg·h/L
AUCtau, Median (IQR) ([1]; individual parameters from population PK, dose/CL, 1 g, n = 12, median (IQR)): 111 (81.9–137) mg·h/L
t1/2β, Mean (CV%) ([1]; individual parameters from population PK, elimination phase half-life, n = 12, mean (CV%)): 3.88 (12.5) h
Vss, Mean (CV%) ([1]; individual parameters from population PK, steady-state volume of distribution, n = 12, mean (CV%)): 0.611 (16.5) L/kg
Vss, Median (IQR) ([1]; individual parameters from population PK, steady-state volume of distribution, n = 12, median (IQR)): 0.593 (0.565–0.650) L/kg
CL, Mean (CV%) ([1]; individual parameters from population PK, total clearance, healthy adults n = 12, 1 g i.v. over 2 h, mean (CV%)): 0.135 (17.0) L/h/kg
CL, Median (IQR) ([1]; individual parameters from population PK, total clearance, healthy adults n = 12, median (IQR)): 0.131 (0.117–0.144) L/h/kg
Q, Estimates ([1]; two-compartment base model): 17.8 L/h
vancomycin clearance ([2]; ICU patients, CLCR 130 mL/min): 6.20 L/h
vancomycin clearance ([2]; ICU patients, CLCR 180 mL/min): 8.61 L/h
vancomycin clearance ([2]; critically ill ARC patients, average CLCR 180.8 mL/min): 9.7 L/h
vancomycin clearance ([2]; critically ill non-ARC patients, average CLCR 103.4 mL/min): 6.5 L/h
average AUC ([2]; 139 patients with augmented renal clearance (ARC)): 232.9 µg·h/mL
average AUC ([2]; 141 patients without ARC): 316.2 µg·h/mL
vancomycin clearance ([2]; patients with ARC): 5.55 L/h
vancomycin clearance ([2]; patients with non-ARC): 4.04 L/h
vancomycin clearance ([2]; patients with thermal or inhalation injuries, TBSA burns 10–19%): 8.2 L/h
vancomycin clearance ([2]; patients with thermal or inhalation injuries, TBSA burns 20–29%): 8.9 L/h
vancomycin clearance ([2]; patients with thermal or inhalation injuries, TBSA burns < 10%): 6.9 L/h
